“Also recorded” adds a separate entry of the source. Read-outs that look alike come from different tables or passages of the source.
Columns and labels:
fruit flies [1] = experiment: Comparison of erythritol with other human-safe sweet alcohols, fly longevity; assay type: in vivo, Drosophila melanogaster; settings: 17 days; for longevity, erythritol treatment versus the other treatments: FIG. 6
Procedure: An experiment was conducted to compare the effectiveness of erythritol with other human-safe sweet alcohols: D-mannitol, maltitol, sucrose, and xylitol. The concentration of all sweet alcohols were 1M.
Flies were raised for 17 days on standard fly food that contained 1 M concentrations of each sweetener treatment. Death of flies was recorded daily as before; each treatment was replicated on three vials of 10 flies each for 30 subjects/treatment. Differences in longevity were analyzed using the Kaplan-Meier survival analysis log rank test, making all pairwise comparisons among treatments.

Drosophila melanogaster [2] = experiment: Erythritol concentration trials, fly longevity; assay type: in vivo
Procedure: Standard fly foods were prepared as previously described, and then were treated with 2M, 1M, 0.5M and 0.1M concentrations of erythritol, using 0.5M sucrose as control. 0 to 24 hour-old Drosophila were placed on these foods and mortality was recorded daily for 35 days as above. Analyses were conducted with SPSS software v. 20 (IBM corporation 2011). Fly longevity data were analyzed using survival analysis with right-hand censoring of subjects that lived to the end of the study or were lost for reasons other than death. Test were run for differences in survival distributions [Pr(flies alive) versus insect age] using the log-rank (Mantel-Cox) test to make all pairwise comparisons among treatments within each experiment.

fruit flies [3] = settings: 0.5 M erythritol food, previous work; cited from earlier work
R. flavipes workers = assay type: in vivo, Reticulitermes flavipes
Procedure: Termites used in the survival and choice experiments were collected from three field colonies in Scotland Run Park (39.66° N, 75.05° W) in Clayton, N.J. between April and May 2019. After collection, colonies were maintained in plastic containers with soil and wood from the collection site as a substrate in laboratory conditions (20.8±0.9° C., 49±7% RH). Termites used in the consumption experiment were collected from a single field colony at Cobb's Creek Park (39.94° N, 75.24° W) in Philadelphia, Pa. during September of 2018. Workers were removed from the log and housed within 24 h of collection in 9 cm diameter petri dishes containing damp paper towel as a food source. Dishes were placed in an incubator at 26° C. (relative humidity varied between 40 and 60% across trials, but was consistent among all treatments within each trial). Each petri dish contained 10 workers. Termites used in all experiments measured 3-4 mm in length.
For the survival experiment, unbleached, brown paper towels (12 cm×24 cm, cat no. 01801, Kimberly-Clark Corporation, Neenah, Wis.), were completely submerged for 15 s in solution of distilled water, erythritol (100% purity, NOW foods, Bloomingdale, Ill.) of the below-specified concentrations, and 0.05% Brilliant Blue R-250 dye (cat. no 27816, Sigma-Aldrich, St. Louis, Mo.). The erythritol concentrations used were: 0 M (control), 0.25 M, 0.5 M, 0.75 M, 1.0 M, and 1.25 M. The treated paper towels were removed from solution and allowed to dry horizontally on racks before being cut into squares with an area of 144 cm^2. Papers were thereafter stored dry at room temperature in sealed containers.
Prior to the beginning of the experiment, termites were allowed to acclimate for 3 d to the petri dishes, in order to control for any death due to injury incurred during movement to the petri dishes; this was called the pretrial period. At the beginning of the pretrial period, termites used in the survival experiment were transferred from sections of natural nest kept in laboratory rearing boxes to 9 cm diameter plastic petri dishes lined with brown, unbleached paper towel (12 cm×24 cm) not treated with erythritol. The paper towel was rehydrated with 1 ml of distilled water. Each dish contained 10 workers. After the third (final) day of the pretrial period, dishes were checked for dead termites, assumed to be dead due to injury, and dead termites were replaced with live individuals from a petri dish of extra termites kept in similar conditions.
Following the pretrial period, the experiment was set up: pretrial paper towels were removed and replaced with treated paper towels of the correct erythritol treatment concentration; these were rehydrated with 750 μL of distilled water. Six treatment groups (0 M, 0.25 M, 0.5 M, 0.75 M, 1.0 M, 1.25 M erythritol) were used per colony (n=3 colonies), with three dishes per treatment, each containing 10 termite workers (n=30 workers/treatment/colony, n=540 total workers). Termite mortality was recorded every 24 h for 8 d.
Analyses were performed using SPSS v. 24 (IBM corp. 2016) and. Sigmaplot v.12.5 (Systat Software 2013) software. Differences in survival distributions across concentrations for all colonies, within the colonies, and across colonies were tested using pairwise log-rank Mantel Cox tests in SPSS, with subjects living to the end of the trial or lost to reasons other than death (e.g., escaped or injured) included in the analysis as right-censored values. Mean percent mortality was calculated for each concentration across colonies at 72 and 96 h and a three parameter, best-fit sigmoid curve was fitted to the data in Sigmaplot to assess LC at these time points.

Drosophila melanogaster [4] = experiment: Longevity of adult flies raised on food containing sweeteners; assay type: in vivo; settings: repeat study, blue-dyed food with 0.0238 g/ml sweetener, FIG. 3
Procedure: All animals were cultured at 25° C., kept at 50-60% humidity, and were raised under a standard 12:12 light dark cycle. For each experimental treatment, n=30 flies were tested in groups of 10 per tube, and three tubes per treatment. Tubes were kept on their side to minimize subject becoming mired in the food. Foods were replaced twice a week. The total number of fruit flies used for these experiments was 780, with 300 used for two initial trials testing mortality among store-brand sweeteners, 210 used for repeating this with blue dye and pure erythritol, 120 for choice trials and 150 for concentration trials.
Standard Drosophila food for larval culturing consisted of water, cornmeal, yeast, molasses, and agar, as previously described (Chakraborty, et al., 2011, PLoS ONE 6: e20799). […] The addition of cornmeal and yeast assured the flies still received sufficient carbohydrates and protein in addition to any effects of the treatment additives.
Drosophila food was combined with an equal weight/volume (0.0238 g/ml) of one non-nutritive sweetener (TRUVIA, EQUAL, SPLENDA, SWEET'NLOW, or PUREVIA) or a control nutritive sweetener (controls: sucrose or corn syrup). Wild type (Canton S) larvae were initially raised on the standard food, and 0-12 hour old adult flies were transferred to foods containing one non-nutritive sweetener or a control treatment. […] The number of dead flies were scored daily.

Drosophila melanogaster [5] = experiment: Two-way food choice experiments, fly longevity; assay type: in vivo; settings: FIG. 5
Procedure: Foods containing 2 M erythritol, 1M erythritol and 1M sucrose were prepared for paired presentations in open choice tests. In each treatment one food type contained 0.05% brilliant blue FCF (Fisher 50-727-25). The blue dye allowed visual confirmation of feeding on the dyed food in the pair. The flies were presented with access to two food choices by using a modified cotton stopper with approximately a 1.5 cm diameter hole to connect each pair of food tubes.
The final choice treatment was between blue 2M erythritol food and non-blue 1M sucrose food (this treatment provides a comparison with the 1M erythritol/1M erythritol treatment as a test of dilution of toxicity by alternative food sources; blue guts would confirm erythritol was being consumed in the presence of sucrose). The number of flies with visible blue gut contents and mortality daily were recorded for 30 days.
Analyses were conducted with SPSS software v. 20 (IBM corporation 2011). Fly longevity data were analyzed using survival analysis with right-hand censoring of subjects that lived to the end of the study or were lost for reasons other than death. Test were run for differences in survival distributions [Pr(flies alive) versus insect age] using the log-rank (Mantel-Cox) test to make all pairwise comparisons among treatments within each experiment.

[6] = 1 M sweetener in standard fly food

OC[C@@H](O)[C@@H](O)[C@H](O)[C@H](O)CO [D-mannitol]
longevity compared to sucrose (sugar) control (fruit flies [1]; [6]): did not differ from sugar control; also recorded: slightly but significantly reduced longevity; also recorded: almost insignificant insecticidal effect
longevity, erythritol treatment versus the other treatments (fruit flies [1]; [6]): significantly greater longevity than erythritol-fed flies

OC[C@@H](O)[C@@H](O)CO [erythritol, (2R,3S)-butane-1,2,3,4-tetraol]
longevity compared to control food (Drosophila melanogaster [2]; 0.1M erythritol in food, observations terminated at 35 days): no significant difference in longevity
longevity with increasing erythritol concentration (Drosophila melanogaster [2]; 0.1M, 0.5M, 1.0M and 2.0M in food, 35 days, FIG. 4): significant decrease in longevity; also recorded: dose-dependent reduction in longevity
longevity compared to control food containing 0.5M sucrose (Drosophila melanogaster [2]; 0.5M erythritol in food): significant reductions in longevity
longevity compared to control food containing 0.5M sucrose (Drosophila melanogaster [2]; 1M erythritol in food): significant reductions in longevity
longevity compared to all other treatments (Drosophila melanogaster [2]; 2M erythritol in food): significant and severe effect on longevity
toxicity to fruit flies upon ingestion (fruit flies [1]; 1 M in standard fly food): toxic to fruit flies upon ingestion
mean longevity (fruit flies [1]; [6]): 4.7 ± 0.15 days
longevity, erythritol treatment versus the other treatments (fruit flies [1]; [6]): significantly lower; also recorded: significantly shorter longevity
time of exposure to reach 50% mortality (fruit flies [3]): 20 days
reduction in mean longevity (R. flavipes workers; 0.25 M to 0.5 M): 1.74 days
reduction in mean longevity (R. flavipes workers; 0.5-0.75 M): 0.23 days
reduction in mean longevity (R. flavipes workers; 0.75-1.0 M): 0.26 days
reduction in mean longevity (R. flavipes workers; 1.0-1.25 M): 0.14 days
concentration at which significant effects on longevity start (R. flavipes workers; R. flavipes workers, 8 d): 0.25 M
reduction in mean longevity (R. flavipes workers; concentration increased from 0 M to 0.25 M, FIG. 10): 3.77 days
time of exposure to reach 50% mortality (R. flavipes workers; termites, 0.5 M erythritol filter papers): ≤ 2 days
longevity compared to PUREVIA, EQUAL, sucrose and corn syrup (Drosophila melanogaster [4]): significant decrease in longevity
longevity relative to sucrose:sucrose choice (Drosophila melanogaster [5]; choice between 1M sucrose and 1M erythritol): significant decrease in longevity; also recorded: significantly decreased longevity
longevity relative to sucrose:sucrose choice (Drosophila melanogaster [5]; choice between 1M sucrose and 2M erythritol): significant decrease in longevity; also recorded: significantly reduced

OC[C@@H](O)[C@@H](O[C@H]1O[C@H](CO)[C@@H](O)[C@H](O)[C@H]1O)[C@H](O)[C@@H](O)CO [maltitol]
longevity compared to sucrose (sugar) control (fruit flies [1]; [6]): did not differ from sugar control; also recorded: did not differ from the control; also recorded: not effective at reducing fly longevity
longevity, erythritol treatment versus the other treatments (fruit flies [1]; [6]): significantly greater longevity than erythritol-fed flies

OC[C@H]1O[C@@](CO)(O[C@H]2O[C@H](CO)[C@@H](O)[C@H](O)[C@H]2O)[C@@H](O)[C@@H]1O [sucrose]
longevity, erythritol treatment versus the other treatments (fruit flies [1]; [6]): significantly greater longevity than erythritol-fed flies

OC[C@@H](O)[C@H](O)[C@@H](O)CO [xylitol]
longevity compared to sucrose (sugar) control (fruit flies [1]; [6]): did not differ from sugar control; also recorded: did not differ from the control; also recorded: not effective at reducing fly longevity
longevity, erythritol treatment versus the other treatments (fruit flies [1]; [6]): significantly greater longevity than erythritol-fed flies
